IC50 data for 65 compounds are collected here from US9783505B2, “Substituted diaminopyrimidyl compounds, compositions thereof, and methods of treatment therewith” (Signal Pharmaceuticals, LLC, priority 2013, dated 2017).

The assay deals with T1, His-PKC-theta (Homo sapiens, UniProt Q04759).
T1 construct: His; purchased Invitrogen
Briefly: PKC-theta Assay (384-well time resolved fluorescence, IMAP TR-FRET). It counts as biochemical. Conditions: read-out: Act. Level (IC50 in the PKC-theta Assay). The method in brief: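 Fam-labeled S6-derived peptide (200 nM) and 10 μM ATP were reacted with 142 pM enzyme for 2 h at room temperature in HEPES pH 7.6 buffer with MgCl2, DTT, Triton X-100, BSA and EDTA. The reaction was stopped with IMAP progressive binding reagent plus Tb donor, incubated overnight, then TR-FRET read.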
(Time-resolved FRET reads energy transfer from a long-lived donor to a nearby acceptor.)

Like-named read-outs stand apart in the source and are kept apart here.

T1 sequence (Q04759 whole entry): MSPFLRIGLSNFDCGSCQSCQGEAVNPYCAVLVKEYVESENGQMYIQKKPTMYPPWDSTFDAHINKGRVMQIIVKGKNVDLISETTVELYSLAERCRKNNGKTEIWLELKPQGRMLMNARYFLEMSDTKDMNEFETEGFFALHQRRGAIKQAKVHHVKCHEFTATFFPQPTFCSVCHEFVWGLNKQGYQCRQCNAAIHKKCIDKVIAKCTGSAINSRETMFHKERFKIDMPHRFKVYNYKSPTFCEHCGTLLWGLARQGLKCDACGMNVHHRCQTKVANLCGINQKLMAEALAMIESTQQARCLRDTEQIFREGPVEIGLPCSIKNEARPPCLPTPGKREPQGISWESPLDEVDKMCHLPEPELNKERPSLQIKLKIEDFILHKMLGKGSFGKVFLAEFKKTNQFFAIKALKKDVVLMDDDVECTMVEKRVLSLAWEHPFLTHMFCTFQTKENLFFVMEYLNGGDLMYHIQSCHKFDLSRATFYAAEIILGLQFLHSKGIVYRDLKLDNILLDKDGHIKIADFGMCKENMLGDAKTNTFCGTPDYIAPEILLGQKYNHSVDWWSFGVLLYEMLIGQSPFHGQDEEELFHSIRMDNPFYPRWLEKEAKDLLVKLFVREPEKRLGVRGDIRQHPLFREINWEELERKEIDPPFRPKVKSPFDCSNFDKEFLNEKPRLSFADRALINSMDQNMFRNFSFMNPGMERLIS

A word on the IC50: it is the concentration at which inhibition is half-maximal. Regarding `CC1(C)C[C@H](Nc2nc(NCCc3ccc(OC4CCCC4)cc3)ncc2C#N)CC[C@@H]1O` [Cmpd 51], the IC50 (Table 2) lay within 100 to 800 nM. For `CC(F)(F)COc1ncncc1CNc1ncc(C#N)c(N[C@@H]2C[C@H](O)C2(C)C)n1` [Cmpd 16], the IC50 is less than 100 nM. With `CC1(C)[C@H](O)C[C@H]1Nc1nc(NCc2c[n+]([O-])ccc2C(F)(F)F)ncc1C(F)(F)F` [Cmpd 105], the IC50 was in the range of 100 to 800 nM.

Take `CC(F)(F)COc1ccc(CCNc2ncc(C#N)c(N[C@@H]3CC[C@H](O)C(C)(C)C3)n2)cc1` [Cmpd 151]: for the setting “Table 2”, the half-maximal inhibitory concentration (IC50) was less than 100 nM. The same measure, in the same setting: the figure for `Cc1nnnn1-c1ccc(CCNc2ncc(C#N)c(N[C@@H]3CC[C@H](O)C(C)(C)C3)n2)cc1` [Cmpd 167] is 100 to 800 nM. For `CC1(C)[C@H](CO)C[C@@H]1Nc1nc(NCc2c[n+]([O-])ccc2C(F)(F)F)ncc1C#N` [Cmpd 145], the half-maximal inhibitory concentration (IC50) fell in the range of 800 to 2000 nM. The same measure, in the same setting: the figure for `CC1(C)[C@H](O)C[C@H]1Nc1nc(NCc2cncnc2-c2ccc(F)cc2)ncc1C#N` [Cmpd 93] is 100 to 800 nM; for `CC1(C)C[C@H](Nc2nc(NCCc3cccs3)ncc2C#N)CC[C@@H]1O` [Cmpd 185] it is 100 to 800 nM. Turning to `CCOc1ncncc1CNc1ncc(C#N)c(N[C@@H]2C[C@H](O)C2(C)C)n1` [Cmpd 58], the IC50 was less than 100 nM. Consider `Cc1cc(C(F)(F)F)c(CNc2ncc(C(F)(F)F)c(N[C@@H]3CC[C@H](O)C(C)(C)C3)n2)c[n+]1[O-]` [Cmpd 55], for which the half-maximal inhibitory concentration (IC50) was less than 100 nM.

For `CC1(C)C[C@H](Nc2nc(NCCc3ccc(S(N)(=O)=O)cc3)ncc2C#N)CC[C@@H]1O` [Cmpd 65], the half-maximal inhibitory concentration (IC50) (Table 2) is 100 to 800 nM. `CC1(C)C[C@H](Nc2nc(NCCc3c[nH]c4ccc(OC(F)(F)F)cc34)ncc2C#N)CC[C@@H]1O` [Cmpd 171]: the IC50 was in the range of 2000 to 10000 nM.

With `C[C@]1(O)CC[C@@H](Nc2nc(NCc3cnccc3C(F)(F)F)ncc2C#N)CC1` [Cmpd 71], the IC50 is less than 100 nM. Regarding `CC1(C)C[C@H](Nc2nc(NCCc3ccc(C#N)c(OC(F)(F)F)c3)ncc2C#N)CC[C@@H]1O` [Cmpd 144], the IC50 (Table 2) was 800 to 2000 nM.

With `C[C@@H]1CC[C@@H](Nc2nc(NCc3cncnc3OCC(C)(F)F)ncc2C#N)C[C@H]1O` [Cmpd 157], the IC50 fell in the range of 100 to 800 nM.

For `CC1(C)[C@@H](O)C[C@H]1Nc1nc(NCCc2ccc(C#N)c(Cl)c2)ncc1C#N` [Cmpd 142], the IC50 (Table 2) is 100 to 800 nM. For the compound `CC1(C)C[C@H](Nc2nc(NCCC3C(=O)Nc4ccccc43)ncc2C#N)CC[C@@H]1O` (some centres unmarked) [Cmpd 247], the IC50 is less than 100 nM. With `CC1(C)[C@@H](O)C[C@H]1Nc1nc(NCCc2ccc(N3CCCCC3)cc2)ncc1C#N` [Cmpd 114], the IC50 (Table 2) is 800 to 2000 nM.

Turning to `CC1(C)[C@H](Nc2nc(NCCc3cccc(Cl)c3)ncc2C#N)C[C@H]1C(N)=O` [Cmpd 163], for the setting “Table 2”, the IC50 is 2000 to 10000 nM. Regarding `C[C@]1(O)CC[C@@H](Nc2nc(NCc3cncnc3C(F)(F)F)ncc2C#N)CC1` [Cmpd 106], the half-maximal inhibitory concentration (IC50) lay in the range of 100 to 800 nM. As for `CC1(C)[C@@H](O)C[C@H]1Nc1nc(NCCc2cccc(C(F)(F)F)c2)ncc1C#N` [Cmpd 45], the concentration for half-maximal inhibition (IC50) (Table 2) is 100 to 800 nM. In the case of `O[C@H]1C[C@@H](Nc2nc(NCc3cnccc3C(F)(F)F)ncc2C(F)(F)F)C1` [Cmpd 95], the IC50 was 100 to 800 nM.

On to `CC(C)c1ncncc1CNc1ncc(C#N)c(N[C@H]2CC[C@@](C)(O)CC2)n1` [Cmpd 56], for which the half-maximal inhibitory concentration (IC50) was less than 100 nM.

As to `CC1(C)[C@@H](O)C[C@H]1Nc1nc(NCCc2ccc(C#N)c(Br)c2)ncc1C#N` [Cmpd 145], the IC50 (Table 2) fell in the range of 100 to 800 nM.

Turning to `CCc1ccc(CCNc2ncc(C#N)c(N[C@@H]3CC[C@H](O)C(C)(C)C3)n2)cc1` [Cmpd 34], the half-maximal inhibitory concentration (IC50) (Table 2) fell in the range of 100 to 800 nM. For the compound `CC1(C)C[C@H](Nc2nc(NCCc3ccc(C#N)c(Cl)c3)ncc2C#N)CC[C@@H]1O` [Cmpd 139], for the setting “Table 2”, the IC50 fell in the range of 100 to 800 nM. For `CC(F)(F)COc1ncncc1CNc1ncc(C#N)c(N[C@H]2CC[C@@H](O)CC2)n1` [Cmpd 153], the IC50 is less than 100 nM. As for `CC1(C)[C@@H](CO)C[C@H]1Nc1nc(NCc2c[n+]([O-])ccc2C(F)(F)F)ncc1C#N` [Cmpd 53], the 50% inhibitory concentration (IC50) was less than 100 nM. Still for that read-out and setting: the figure for `CCc1ncncc1CNc1ncc(C#N)c(NC2CC(C)(O)C2(C)C)n1` (centres unmarked) [Cmpd 135] is 100 to 800 nM. In the case of `CNC(=O)c1cccc(CCNc2ncc(C#N)c(N[C@@H]3C[C@H](O)C3(C)C)n2)c1` [Cmpd 135], the IC50 (Table 2) was in the range of 800 to 2000 nM. The same measure, in the same setting: for `COc1cccc(F)c1CNc1ncc(C#N)c(N[C@H]2CC[C@@H](O)CC2)n1` [Cmpd 22] the value was 2000 to 10000 nM. `COC1CC(Nc2nc(NCc3cnccc3C(F)(F)F)ncc2C(F)(F)F)C1(C)C` (centres unmarked) [Cmpd 74]: the IC50 was less than 100 nM. Still for that read-out and setting: for `CC1(C)C(Nc2nc(NCc3cncnc3OCCC(F)(F)F)ncc2C#N)C[C@H]1O` (some centres unmarked) [Cmpd 77] the value was less than 100 nM; for `CCOc1ncncc1CNc1ncc(C(F)(F)F)c(N[C@@H]2C[C@H](O)C2(C)C)n1` [Cmpd 57], less than 100 nM. Take `CC1(C)[C@@H](O)C[C@H]1Nc1nc(NCCc2ccc(F)cc2)ncc1C#N` [Cmpd 102]: where the note is “Table 2”, the IC50 was 100 to 800 nM. Take `N#Cc1cnc(NCCC2C(=O)Nc3ccccc32)nc1N[C@H]1CC[C@@H](O)CC1` (some centres unmarked) [Cmpd 155]: the IC50 lay within 100 to 800 nM. Regarding `CC1(C)C[C@H](Nc2nc(NCc3cncnc3OCC(F)F)ncc2C#N)CC[C@@H]1O` [Cmpd 34], the IC50 was less than 100 nM.

Regarding `CC1(C)C[C@H](Nc2nc(NCc3cncnc3OCCC(F)(F)F)ncc2C#N)CC[C@@H]1O` [Cmpd 6], the IC50 was less than 100 nM.

As for `CC1(C)[C@@H](Nc2nc(NCCc3cccc(Cl)c3)ncc2C#N)C[C@@H]1N` [Cmpd 157], the IC50 (Table 2) lay within 100 to 800 nM. Regarding `CNC(=O)[C@H]1CC[C@@H](Nc2nc(NCc3cnccc3C(F)(F)F)ncc2C#N)CC1` [Cmpd 68], the concentration for half-maximal inhibition (IC50) is less than 100 nM.

For the compound `CC1(C)C[C@H](Nc2nc(NCCC3(O)C(=O)Nc4ccccc43)ncc2C#N)CC[C@@H]1O` (some centres unmarked) [Cmpd 184], the half-maximal inhibitory concentration (IC50) fell in the range of 100 to 800 nM. Same read-out and setting: for `CC1(C)[C@H](CO)C[C@@H]1Nc1nc(NCc2c[n+]([O-])ccc2C(F)(F)F)ncc1C(F)(F)F` [Cmpd 141] the value was 800 to 2000 nM.

On to `C[C@H](CNc1ncc(C#N)c(N[C@@H]2C[C@H](O)C2(C)C)n1)c1ccccc1` [Cmpd 42], for which the IC50 (Table 2) lay within 100 to 800 nM.

With `COc1ncncc1CNc1ncc(C(F)(F)F)c(N[C@@H]2C[C@H](O)C2(C)C)n1` [Cmpd 62], the IC50 was less than 100 nM.

Take `N#Cc1cnc(NCCC2(O)C(=O)Nc3ccccc32)nc1N[C@H]1CC[C@@H](O)CC1` (some centres unmarked) [Cmpd 162]: the concentration for half-maximal inhibition (IC50) lay in the range of 2000 to 10000 nM. For `CC1(C)C[C@H](Nc2nc(NCCc3ccccc3C#N)ncc2C#N)CC[C@@H]1O` [Cmpd 156], the IC50 (Table 2) lay in the range of 100 to 800 nM. Still for that read-out and setting: the figure for `CC1(C)C[C@@H](O)CC[C@H]1Nc1nc(NCCc2cccc(Cl)c2)ncc1C#N` [Cmpd 190] is less than 100 nM; for `CC1(C)C[C@H](Nc2nc(NCCc3ccc(Oc4ccccc4)cc3)ncc2C#N)CC[C@@H]1O` [Cmpd 79] it is 100 to 800 nM. Same read-out and setting: the figure for `CC1(C)C[C@H](Nc2nc(NCCc3ccc(S(=O)(=O)N4CCCC4)cc3)ncc2C#N)CC[C@@H]1O` [Cmpd 174] is 100 to 800 nM. On the same count and under the same terms, for `COc1cc(CCNc2ncc(C#N)c(N[C@@H]3CC[C@H](O)C(C)(C)C3)n2)ccc1O` [Cmpd 95] the value was 100 to 800 nM. As for `Cc1nnnn1-c1ccccc1CCNc1ncc(C#N)c(N[C@@H]2CC[C@H](O)C(C)(C)C2)n1` [Cmpd 168], the concentration for half-maximal inhibition (IC50) (Table 2) was in the range of 2000 to 10000 nM. In the case of `N#Cc1cnc(NCCC2C(=O)Nc3ccccc32)nc1N[C@H]1CC[C@@H](C(N)=O)CC1` (some centres unmarked) [Cmpd 179], the 50% inhibitory concentration (IC50) was less than 100 nM. `CC1(C)C[C@H](Nc2nc(NCCc3ccc(C#N)c(C(F)(F)F)c3)ncc2C#N)CC[C@@H]1O` [Cmpd 140]: for the setting “Table 2”, the concentration for half-maximal inhibition (IC50) lay in the range of 100 to 800 nM. With `CC1(C)[C@H](O)C[C@@H]1Nc1nc(NCc2cncnc2OCCC(F)(F)F)ncc1C#N` [Cmpd 89], the 50% inhibitory concentration (IC50) is less than 100 nM. Regarding `CC1(C)C[C@H](Nc2nc(NCC(=O)c3ccc(F)cc3F)ncc2C#N)CC[C@@H]1O` [Cmpd 66], the IC50 (Table 2) was in the range of 100 to 800 nM. On the same count and under the same terms, the figure for `CC1(C)[C@@H](O)C[C@H]1Nc1nc(NCCc2ccc(Cl)cc2Cl)ncc1C#N` [Cmpd 106] is 100 to 800 nM; for `CN(C)C(=O)c1cccc(CCNc2ncc(C#N)c(N[C@@H]3CC[C@H](O)C(C)(C)C3)n2)c1` [Cmpd 61] it is 2000 to 10000 nM; for `CN(C)S(=O)(=O)c1ccc(CCNc2ncc(C#N)c(N[C@@H]3CC[C@H](O)C(C)(C)C3)n2)cc1` [Cmpd 175] it is 100 to 800 nM.

As to `C[C@@H](CNc1ncc(C#N)c(N[C@@H]2C[C@H](O)C2(C)C)n1)c1ccccc1` [Cmpd 41], the IC50 (Table 2) was 800 to 2000 nM. As for `CC1(C)C(O)C[C@@H]1Nc1nc(NCc2cncnc2OCCC(F)(F)F)ncc1C#N` (some centres unmarked) [Cmpd 107], the IC50 was in the range of 100 to 800 nM. Consider `COCCOc1ccc(CCNc2ncc(C#N)c(N[C@@H]3CC[C@H](O)C(C)(C)C3)n2)cc1` [Cmpd 62], for which the IC50 (Table 2) is 100 to 800 nM. The same measure, in the same setting: the figure for `CNC(=O)c1cccc(CCNc2ncc(C#N)c(N[C@@H]3CC[C@H](O)C(C)(C)C3)n2)c1` [Cmpd 131] is 800 to 2000 nM; for `N#Cc1cnc(NCc2ccccc2OC(F)F)nc1N[C@H]1CC[C@@H](O)CC1` [Cmpd 4] it is 100 to 800 nM.

As for `N#Cc1cnc(NCc2cnccc2C(F)(F)F)nc1NC12CC3CC(CC(O)(C3)C1)C2` [Cmpd 124], the half-maximal inhibitory concentration (IC50) was 800 to 2000 nM. Consider `Cc1nnnn1-c1cccc(CCNc2ncc(C#N)c(N[C@@H]3CC[C@H](O)C(C)(C)C3)n2)c1` [Cmpd 169], for which the 50% inhibitory concentration (IC50) (Table 2) lay within 100 to 800 nM.
